Earlier results, collected in patent US20060246505A1, “Modulation of the synthesis of insulin” (priority 2003, published 2006).

System: signalling pathways that trigger transcription
Conditions: glucose-triggered resynthesis of insulin in beta cells; prior-art statement

SMILES: C[S+]([O-])c1ccc(-c2nc(-c3ccncc3)c(-c3ccc(F)cc3)[nH]2)cc1 (stereo not shown) [SB 203580]
- inhibition of the signalling pathways that trigger transcription (resynthesis of insulin): can be inhibited
